Key:
Format in all cases: in vivo
Cydia pomonella [1] = assay: Field trial Example 2: larva per hectare captured from corrugated cardboard traps in 100 trees; settings: treatments of Table 4, FIG. 6
Protocol: (§1) A field trial was conducted in Argentina to evaluate the efficacy of chlorantraniliprole in combination with a kairomone, ethyl (2E,4Z)-2,4-decadienoate, to improve Cydia pomonella control in foliar application of apple (Malus domestica) compared to the efficacy of chlorantraniliprole alone and kairomone alone. SC=suspension concentrate; CS=capsule suspension
(§2) Efficacy of the trial was evaluated by (1) comparing the number of damaged fruit across the treatment groups; and (2) comparing the larva captured per hectare that were captured from corrugated cardboard traps settled in 100 trees. As shown in FIGS. 4-5, there was a significant difference in damaged fruits treatments that included chlorantraniliprole+kairomone compared to fruits treated with only chlorantraniliprole.

Cydia pomonella [2] = assay: Field trial Example 2: number of damaged fruit across treatment groups, apple; settings: Example 2, foliar application, treatments of Table 4, FIGS. 4-5
Protocol: as §1, §2

Cydia pomonella [3] = assay: Field trial Example 1: fruit damage counts, 1000 fruit per plot, apple orchards; settings: Trial 4 (highest codling moth infestation), apple orchard, Argentina; programs of Table 1; letters = significantly different groups (Chi-square)
Protocol: (§3) A field trial was conducted in Argentina to determine the effect of blending codling moth pheromone, (E,E)-8,10-dodecadien-1-ol, with chlorantraniliprole for control of coding moth population in apple orchards. The first flight of codling moth was targeted, at which time standard grower treatment pheromone dispensers had been placed in the respective fields. Applications of the chlorantraniliprole or chlorantraniliprole+pheromone were timed when eggs were expected to hatch.
(§4) Treatment programs comprising nine tracts of land across three farms were performed (see FIGS. 1A-C). SC=suspension concentrate; VP=vapor releasing product; WG=water-dispersible granules.
(§5) In brief, one treatment program was performed using an application of pheromone alone at 90 DD followed by applications of chlorantraniliprole plus pheromone at 250 DD and 250DD+21 days, respectively. A separate treatment was performed by applying chlorantraniliprole alone at 250 DD and 250DD+21 days. […]
(§6) Treatment effects were determined by conducting fruit damage counts prior to second generation flights by evaluating 1000 fruit in each plot for codling moth damage. […] The bands were removed during the second week of January, taken to the lab and counted.

Cydia pomonella [4] = assay: Field trial Example 1: pupae counts in corrugated cardboard tree bands on 100 trees; settings: Trial 4 (highest infestation), programs of Table 1
Protocol: as §3, §4, §5, §6

SMILES | larva per hectare captured in corrugated cardboard traps (Cydia pomonella [1]) | damaged fruits out of 1000 fruits per treatment (Cydia pomonella [2]) | # Damaged Fruit/ 1000 fruit (Cydia pomonella [3]) [c] | # of Pupae Found (Cydia pomonella [4])
CCCCC/C=C\C=C\C(=O)OCC [Kairomone, ethyl (2E,4Z)-2,4-decadienoate] | larva per hectare significantly higher compared to all other treatments | number of damaged fruits significantly higher compared to all other treatments | – | –
CNC(=O)c1cc(Cl)cc(C)c1NC(=O)c1cc(Br)nn1-c1ncccc1Cl [Chlorantraniliprole Alone, 3-bromo-N-(4-chloro-2-methyl-6-(methylcarbamoyl)phenyl)-1-(3-chloropyridin-2-yl)-1H-pyrazole-5-carboxamide] | – | – | 39 | 1782

Source: patent publication US20250194599A1, “PESTICIDE FORMULATIONS” (FMC CORPORATION, priority 2022, published 2025)
